# Measured values published in US5674878A, “Anellated dihydropyridines and the use thereof for the production of pharmaceutical preparations” (Boehringer Ingelheim KG, priority 1992, dated 1997).
# Test system: unselective cation channels (UCC)
# Assay: Thapsigargin (0.1 μM) stimulated Ca^2+ entry through unselective cation channels in fura-2-charged RBL-hm 1 cells
# Format: cell-based, rat
# Settings: RBL-hm 1 cells, Thapsigargin (0.1 μM) stimulation, 10 μM test substance (Table 21)
# Source text: As a measurement of the cell activation or as a measurement of the inhibition thereof by UCC blockers, the kinetics of the cytoplasmic calcium ion concentration in fura-2-charged cells is quantified fluorometrically using the method described by GRYNKIEWICZ et al. (1985).
# Consequently the Ca^2+ -stores are rapidly depleted. As described by J. PUTNEY (Calcium, 11, 611-624, 1990) the depletion of these stores constitutes the physiological stimulation for opening up unselective cation channels in the cell membrane. The result of this is a massive influx of Na^+ and Ca^2+ into the cell. Because of these properties, Thapsigargin is suitable as an indirect stimulator for agonist- and IP3-independent opening up of the unselective cation channels.
# The functional endothelin antagonism of the substances according to the invention is mediated through a blockade of the unselective cation channels. Consequently, detection of a functional Thapsigargin-antagonism on RBL-hm1 cells is also a suitable screening method for functional endothelin antagonists.
# For screening purposes, fura-2-charged adhesive RBL-hm 1 cells are stimulated with 0.1 μM Thapsigargin in a Ca^2+ -free incubation medium. After 4 minutes, extracellular Ca^2+ is restored to a concentration of 1.5 mM and, using the fura-2-fluorescence, the excessive increase in the cytoplasmic Ca^2+ -concentration caused by a massive transmembranal Ca^2+ -entry through unselective cation channels is recorded.
# This entry is to be inhibited solely by unselective cation channel blockers in a dosage-dependent manner. Neither conventional calcium antagonists nor specific blockers of agonists which stimulate the IP3 -turnover are able to inhibit the transmembranal Ca^2+ -entry triggered indirectly by Thapsigargin. The compounds of the present invention are distinguished by their inhibition of UCC.
# The fluorometric calcium measurement in the cytoplasm of individual adhering RBL-hm1 cells is carried out analogously to the method described by KUDO and OGURA (1986) for neuronal cells. An AXIOVERT 35 fluorescence microscope made by ZEISS is used in conjunction with an imaging system made by HAMAMATSU, consisting of the ICMS-image processing system, residual light camera with control unit and image intensifier DVS 3000.
# The kinetics of the cytoplasmic Ca^2+ -concentration is recorded continuously as a concentration/time curve after the cell activation stimulated by Thapsigargin (0.1 μM). The curves of two activated cell cultures are compared in the presence and absence of 10 μM test substance. The area under these curves (area under the curve=AUC) is integrated and recorded as a measurement of cell activation. The inhibitory potency of the UCC-blockers tested is determined using the following equation: [formula] %H=the percentage inhibition of the calcium entry through unselective cation channels which is stimulated and inhibited by 10 μM of test substance.
# AUCinh =area under the curve recorded in the presence of the stimulant plus 10 μM inhibitory test substance.
# AUCcontrol =area under the curve which is recorded only after the addition of the stimulant.
# The percentage inhibition of UCC after Thapsigargin stimulation (0.1 μM Thapsigargin) in RBL-hm 1 cells is given. The uniform concentration of the test substances is 10^-5 mol).
row,SMILES,% Inhibition [%]
1,COc1cc2c(cc1OC)C(=C(C(=O)NC(Cc1ccccc1)c1ccccc1)c1ccccc1)NCC2 (stereo not shown) [Q],64.28
2,COCCNC(=O)C(=C1NCCc2cc(OC)c(OC)cc21)c1ccccc1 [compound 17],52.53
3,COCCCNC(=O)C(=C1NCCc2cc(OC)c(OC)cc21)c1ccccc1 [compound 18],57.53
4,COc1cc2c(cc1OC)C(=C(C(=O)NCCCN(C)C)c1ccccc1)NCC2 [compound 20],57.38
5,COc1cc2c(cc1OC)C(C(C(=O)Nc1cccnc1)c1ccccc1)=NCC2 (stereo not shown) [compound 33],60.55
6,COc1cc2c(cc1OC)C(C(C(=O)N(C)C)c1ccccc1)=NCC2 (stereo not shown) [compound 36],52.19
7,CCN(CC)C(=O)C(C1=NCCc2cc(OC)c(OC)cc21)c1ccccc1 (stereo not shown) [compound 37],75.77
8,COc1cc2c(cc1OC)C(C(C(=O)N1CCOCC1)c1ccccc1)=NCC2 (stereo not shown) [compound 39],48.62
9,COc1cc2c(cc1OC)C(C(C(=O)N1CCSCC1)c1ccccc1)=NCC2 (stereo not shown) [compound 40],64.99
10,COc1cc2c(cc1OC)C(=C(C(=O)N1CCN(Cc3ccccc3)CC1)c1ccccc1)NCC2 [compound 42],84.83
11,COc1cc2c(cc1OC)C(C(C(=O)N1CCN(C)CC1)c1ccccc1)=NCC2 (stereo not shown) [compound 43],48.69
12,O=C(NCCc1ccc2c(c1)OCO2)C(=C1NCCc2cc3c(cc21)OCO3)c1ccccc1 [compound 46],68.06
13,O=C(NCCN1CCOCC1)C(=C1NCCc2cc3c(cc21)OCO3)c1ccccc1 [compound 48],61.34
14,COc1ccc(CCNC(=O)C(=C2NCCc3c2[nH]c2ccccc32)c2ccccc2)cc1OC [compound 83],66.76
15,O=C(NCCN1CCOCC1)C(=C1NCCc2c1[nH]c1ccccc21)c1ccccc1 [compound 89],53.38
16,COc1cc2c(cc1OC)C(C(C(=O)NCCC(c1ccccc1)c1ccccc1)c1ccccc1)=NCC2 (stereo not shown) [compound 101],59.62
17,COc1cc2c(cc1OC)C(C(C(=O)NCCc1ccccc1C)c1ccccc1)=NCC2 (stereo not shown) [compound 102],80.77
18,COc1cc(CCNC(=O)C(C2=NCCc3cc(OC)c(OC)cc32)c2ccccc2)cc(OC)c1 (stereo not shown) [compound 104],54.67
19,COc1cccc(CCNC(=O)C(C2=NCCc3cc(OC)c(OC)cc32)c2ccccc2)c1 (stereo not shown) [compound 105],45.09
20,COc1cc2c(cc1OC)C(C(C(=O)NCc1cc(C)ccc1C)c1ccccc1)=NCC2 (stereo not shown) [compound 106],65.69
21,COc1cc2c(cc1OC)C(C(C(=O)NCCCc1ccc(OC)c(OC)c1OC)c1ccccc1)=NCC2 (stereo not shown) [compound 108],44.45
22,COc1cc2c(cc1OC)C(=C(C(=O)NCCc1ccc(OC)c(C)c1C)c1ccccc1)NCC2 [compound 109],74.18
23,CCOc1ccccc1CCCNC(=O)C(C1=NCCc2cc(OC)c(OC)cc21)c1ccccc1 (stereo not shown) [compound 115],75.53
24,COc1cc2c(cc1OC)C(=C(C(=O)NCC13CC4CC(CC(C4)C1)C3)c1ccccc1)NCC2 [compound 132],65.14
25,COc1cc(N=[N+]=[N-])ccc1CCNC(=O)C(C1=NCCc2cc(OC)c(OC)cc21)c1ccccc1 (stereo not shown) [compound 133],68.15

# Same assay, conditions: Table 16; %inhibition, 10 μM test substance
row,SMILES,% [%]
1,O=C(NCCc1cccc(C(F)(F)F)c1)C(C1=NCCc2cc(OCc3ccccc3)c(Cl)cc21)c1ccccc1 (stereo not shown) [drawing 223],32.90

# Same assay, conditions: Table 17; 10 μM test substance
row,SMILES,percent inhibition of Ca2+ entry [%]
1,COc1cc2c(cc1OC)C(C(C(=O)NCCC(C)(C)C)c1ccccc1)=NCC2 (stereo not shown),80.97
2,COc1cc(N=[N+]=[N-])ccc1CCNC(=O)C(C1=NCCc2cc(OC)c(OC)cc21)c1ccccc1 (stereo not shown) [drawing 231],68.2

# Same assay, conditions: Table 20; 10 μM test substance
row,SMILES,percent inhibition of Ca2+ entry [%]
1,COc1cc2c(cc1O)CCN=C2C(C(=O)N(CCc1ccc(OC)c(OC)c1OC)CCc1ccc(OC)c(OC)c1OC)c1ccccc1 (stereo not shown),86.70
2,O=C(NCCc1cccc(C(F)(F)F)c1)C(C1=NCCc2cc(OCc3ccccc3)c(Cl)cc21)c1ccccc1 (stereo not shown) [drawing 274],32.9

# Test system: RBL-2H3-cells
# Assay: DNP-BSA antigen-induced activation of sensitised RBL-2H3 cells
# Format: cell-based
# Settings: Rattus norvegicus, read-out: inhibition of the antigen-induced cell activation
# Experimental: Individual RBL-2H3-cells (a tumour cell line related to the mast cells) adhering to glass slides are used.
# The cultivation and attachment of the RBL-2H3-cells are carried out by the method described by HIDE and BEAVEN (1991). In order to sensitise the adhesive RBL-2H3-cells the cells are incubated for 2 hours at ambient temperature with a 1:2000 diluted commercial gammaglobulin E-solution against a dinitrophenol-bovine serum albumin complex (DNP-BSA-antigen). The cells are then washed. By the addition of 0.1 ml of DNP-BSA-solution (10 μg/ml) there is a massive immunological cell activation which is mediated by a cytoplasmic Ca^2+ -overload. The fluorometric calcium measurement in the cytoplasm of individual adhering RBL-2H3-cells is carried out analogously to the method described by KUDO and OGURA (1986) for neuronal cells, which is also explained hereinbefore in this specification.
row,SMILES,inhibition at 10 µM [%]
1,O=C(O)c1cc(=O)c2c(OCC(O)COc3cccc4oc(C(=O)O)cc(=O)c34)cccc2o1 [chromoglycate],~50

# Test system: unselective cation channels (UCC)
# Assay: Thapsigargin (0.1 μM) stimulated Ca^2+ entry through unselective cation channels in fura-2-charged RBL-hm 1 cells
# Format: cell-based, rat
# Settings: Table 17
row,IC50 [µM],SMILES
1,7.57,COc1cc2c(cc1OC)C(C(C(=O)NCCC(C)(C)C)c1ccccc1)=NCC2 (stereo not shown)

# Same assay, conditions: Table 20
row,IC50 [µM],SMILES
1,3.47,COc1cc2c(cc1O)CCN=C2C(C(=O)N(CCc1ccc(OC)c(OC)c1OC)CCc1ccc(OC)c(OC)c1OC)c1ccccc1 (stereo not shown)

# Test system: Ca^2+-ATPase of intracellular IP3-sensitive Ca^2+-stores
# Assay: not given
# Settings: in words; cited from earlier work
row,SMILES,inhibition of Ca^2+-ATPase
1,C/C=C(/C)C(=O)O[C@H]1C(C)=C2[C@H]([C@@H]1OC(=O)CCCCCCC)[C@@](C)(OC(C)=O)C[C@H](OC(=O)CCC)[C@@]1(O)[C@H]2OC(=O)[C@@]1(C)O [THAPSIGARGIN],selectively and irreversibly inhibits
